Tests used:
Format in all cases: cell-based
BRD2/3/4 = test: Western blot, selectivity against BRD2/3/4 in Kelly NB cells; settings: 8 and 16 hours
Method: […] Whole cell lysates were collected using ice cold lysis buffer [300 mM NaCl, 50 mM Tris-HCl, pH 7.5, 0.5% Triton X-100, 1% sodium dodecyl sulfate (SDS), 1 mM dithiothreitol (DTT) (Invitrogen™), Roche®'s cOmplete™ protease inhibitor cocktail (1:000), 25 units/mL Benzonase®] and blotted at a protein concentration of 30 μg for EP300 and CBP and 10 μg for histone H3 and H3K27ac. Lysates were also blotted for bromodomain-containing protein 4 (BRD4). Lysates were resolved in NuPAGE™ 3-8% Tris-Acetate polyacrylamide gels (EA03785BOX, Invitrogen™) for EP300 and CBP and Bolt 4-12% Bis-Tris polyacrylamide gels (NW04125BOX, Invitrogen™) for H3 and H3K27ac. Afterwards, gels were transferred to nitrocellulose membranes (LC2001, Invitrogen™). Primary and secondary antibodies used included anti-p300 at 1:500 dilution (ab10485, Abcam®), anti-CBP at 1:500 dilution (D6C5, Cell Signaling Technology®), anti-Actin at 1:5000 dilution (3700S, Cell Signaling Technology®), anti-H3 at 1:1000 dilution (4499S, Cell Signaling Technology®), anti-H3K27ac at 1:1000 dilution (ab4729, Abcam®), IRDye®800 goat anti-rabbit at 1:5000 dilution (926-32211, LiCor® Biosciences) and IRDye®680 goat anti-mouse at 1:5000 dilution (926-68070, LiCor®). Visualization was performed on an Odyssey infrared imaging system (LiCor® Biosciences).

EP300 = EP300 (Homo sapiens (Human), UniProt Q09472); test: Western blot for EP300 degradation in Kelly NB cells; settings: 8 and 16 hours, at 3 μM
Method: (§1) […] Whole cell lysates were collected using ice cold lysis buffer [300 mM NaCl, 50 mM Tris-HCl, pH 7.5, 0.5% Triton X-100, 1% sodium dodecyl sulfate (SDS), 1 mM dithiothreitol (DTT) (Invitrogen™), Roche®'s cOmplete™ protease inhibitor cocktail (1:000), 25 units/mL Benzonase®] and blotted at a protein concentration of 30 μg for EP300 and CBP and 10 μg for histone H3 and H3K27ac. Lysates were also blotted for bromodomain-containing protein 4 (BRD4). Lysates were resolved in NuPAGE™ 3-8% Tris-Acetate polyacrylamide gels (EA03785BOX, Invitrogen™) for EP300 and CBP and Bolt 4-12% Bis-Tris polyacrylamide gels (NW04125BOX, Invitrogen™) for H3 and H3K27ac. Afterwards, gels were transferred to nitrocellulose membranes (LC2001, Invitrogen™). […] Visualization was performed on an Odyssey infrared imaging system (LiCor® Biosciences).

CBP = CBP (Homo sapiens (Human), UniProt Q92793); test: Western blot for CBP degradation in Kelly NB cells; settings: 8 and 16 hours, at 3 μM
Method: as §1

Sequence of CBP (Q92793 whole entry): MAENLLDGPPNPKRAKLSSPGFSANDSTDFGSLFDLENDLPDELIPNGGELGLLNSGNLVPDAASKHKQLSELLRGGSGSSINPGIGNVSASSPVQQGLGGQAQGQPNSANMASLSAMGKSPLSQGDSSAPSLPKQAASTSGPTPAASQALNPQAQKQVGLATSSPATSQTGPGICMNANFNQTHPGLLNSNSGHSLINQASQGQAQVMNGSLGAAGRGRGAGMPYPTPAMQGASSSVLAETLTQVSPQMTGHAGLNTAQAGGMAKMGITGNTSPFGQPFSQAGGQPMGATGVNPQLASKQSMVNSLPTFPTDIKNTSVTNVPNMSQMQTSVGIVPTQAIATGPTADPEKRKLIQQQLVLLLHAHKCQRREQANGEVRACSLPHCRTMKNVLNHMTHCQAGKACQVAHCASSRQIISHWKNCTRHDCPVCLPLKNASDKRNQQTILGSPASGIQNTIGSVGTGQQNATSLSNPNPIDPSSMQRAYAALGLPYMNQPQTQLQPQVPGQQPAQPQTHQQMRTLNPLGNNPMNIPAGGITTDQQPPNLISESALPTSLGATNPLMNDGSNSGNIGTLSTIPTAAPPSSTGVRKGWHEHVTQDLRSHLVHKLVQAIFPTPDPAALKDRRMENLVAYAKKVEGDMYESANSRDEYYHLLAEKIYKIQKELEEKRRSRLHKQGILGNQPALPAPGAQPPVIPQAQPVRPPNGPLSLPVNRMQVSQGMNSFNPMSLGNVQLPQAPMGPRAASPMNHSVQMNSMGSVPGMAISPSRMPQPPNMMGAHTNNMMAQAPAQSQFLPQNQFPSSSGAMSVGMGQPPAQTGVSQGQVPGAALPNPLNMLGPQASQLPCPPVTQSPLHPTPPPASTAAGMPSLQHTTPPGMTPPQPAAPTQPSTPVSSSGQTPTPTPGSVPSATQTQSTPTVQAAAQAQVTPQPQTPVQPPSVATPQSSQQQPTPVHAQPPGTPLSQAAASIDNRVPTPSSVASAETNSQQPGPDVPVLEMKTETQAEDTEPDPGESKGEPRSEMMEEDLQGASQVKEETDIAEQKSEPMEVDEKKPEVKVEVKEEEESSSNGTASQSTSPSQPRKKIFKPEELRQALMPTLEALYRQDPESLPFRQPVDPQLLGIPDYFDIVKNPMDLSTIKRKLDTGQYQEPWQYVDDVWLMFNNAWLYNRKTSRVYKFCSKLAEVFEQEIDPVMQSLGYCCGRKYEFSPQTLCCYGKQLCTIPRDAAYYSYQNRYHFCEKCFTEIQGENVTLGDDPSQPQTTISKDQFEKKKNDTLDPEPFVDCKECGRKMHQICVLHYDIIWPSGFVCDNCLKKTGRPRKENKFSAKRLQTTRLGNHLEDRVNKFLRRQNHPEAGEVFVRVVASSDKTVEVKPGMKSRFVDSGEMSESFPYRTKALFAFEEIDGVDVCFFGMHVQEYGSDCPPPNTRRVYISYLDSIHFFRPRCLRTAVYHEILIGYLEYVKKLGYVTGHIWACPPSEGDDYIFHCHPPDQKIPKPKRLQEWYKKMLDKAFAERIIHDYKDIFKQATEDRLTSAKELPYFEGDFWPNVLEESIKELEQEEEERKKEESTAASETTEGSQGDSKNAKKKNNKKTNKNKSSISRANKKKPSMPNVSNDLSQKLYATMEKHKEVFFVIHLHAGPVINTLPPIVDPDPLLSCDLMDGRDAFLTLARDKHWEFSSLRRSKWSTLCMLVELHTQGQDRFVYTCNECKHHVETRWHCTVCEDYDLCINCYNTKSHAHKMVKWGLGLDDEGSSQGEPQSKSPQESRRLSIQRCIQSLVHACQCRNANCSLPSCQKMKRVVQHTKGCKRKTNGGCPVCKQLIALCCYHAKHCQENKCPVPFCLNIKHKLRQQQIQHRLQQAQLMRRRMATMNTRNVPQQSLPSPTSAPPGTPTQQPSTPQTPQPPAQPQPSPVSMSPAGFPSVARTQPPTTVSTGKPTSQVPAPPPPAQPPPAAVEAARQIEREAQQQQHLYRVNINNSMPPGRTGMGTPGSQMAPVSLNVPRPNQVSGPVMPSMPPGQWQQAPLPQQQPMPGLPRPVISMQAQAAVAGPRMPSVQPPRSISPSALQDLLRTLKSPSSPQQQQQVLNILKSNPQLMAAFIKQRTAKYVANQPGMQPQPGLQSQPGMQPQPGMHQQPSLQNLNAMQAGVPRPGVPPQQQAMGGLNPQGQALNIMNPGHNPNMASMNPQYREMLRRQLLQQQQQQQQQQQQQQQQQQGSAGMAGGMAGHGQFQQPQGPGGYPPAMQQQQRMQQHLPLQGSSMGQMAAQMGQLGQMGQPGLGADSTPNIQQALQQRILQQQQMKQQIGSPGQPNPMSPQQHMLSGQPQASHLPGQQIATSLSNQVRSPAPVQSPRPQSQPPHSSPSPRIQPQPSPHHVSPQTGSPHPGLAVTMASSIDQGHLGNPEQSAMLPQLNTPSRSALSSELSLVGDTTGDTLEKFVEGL
Sequence of EP300 (Q09472 whole entry): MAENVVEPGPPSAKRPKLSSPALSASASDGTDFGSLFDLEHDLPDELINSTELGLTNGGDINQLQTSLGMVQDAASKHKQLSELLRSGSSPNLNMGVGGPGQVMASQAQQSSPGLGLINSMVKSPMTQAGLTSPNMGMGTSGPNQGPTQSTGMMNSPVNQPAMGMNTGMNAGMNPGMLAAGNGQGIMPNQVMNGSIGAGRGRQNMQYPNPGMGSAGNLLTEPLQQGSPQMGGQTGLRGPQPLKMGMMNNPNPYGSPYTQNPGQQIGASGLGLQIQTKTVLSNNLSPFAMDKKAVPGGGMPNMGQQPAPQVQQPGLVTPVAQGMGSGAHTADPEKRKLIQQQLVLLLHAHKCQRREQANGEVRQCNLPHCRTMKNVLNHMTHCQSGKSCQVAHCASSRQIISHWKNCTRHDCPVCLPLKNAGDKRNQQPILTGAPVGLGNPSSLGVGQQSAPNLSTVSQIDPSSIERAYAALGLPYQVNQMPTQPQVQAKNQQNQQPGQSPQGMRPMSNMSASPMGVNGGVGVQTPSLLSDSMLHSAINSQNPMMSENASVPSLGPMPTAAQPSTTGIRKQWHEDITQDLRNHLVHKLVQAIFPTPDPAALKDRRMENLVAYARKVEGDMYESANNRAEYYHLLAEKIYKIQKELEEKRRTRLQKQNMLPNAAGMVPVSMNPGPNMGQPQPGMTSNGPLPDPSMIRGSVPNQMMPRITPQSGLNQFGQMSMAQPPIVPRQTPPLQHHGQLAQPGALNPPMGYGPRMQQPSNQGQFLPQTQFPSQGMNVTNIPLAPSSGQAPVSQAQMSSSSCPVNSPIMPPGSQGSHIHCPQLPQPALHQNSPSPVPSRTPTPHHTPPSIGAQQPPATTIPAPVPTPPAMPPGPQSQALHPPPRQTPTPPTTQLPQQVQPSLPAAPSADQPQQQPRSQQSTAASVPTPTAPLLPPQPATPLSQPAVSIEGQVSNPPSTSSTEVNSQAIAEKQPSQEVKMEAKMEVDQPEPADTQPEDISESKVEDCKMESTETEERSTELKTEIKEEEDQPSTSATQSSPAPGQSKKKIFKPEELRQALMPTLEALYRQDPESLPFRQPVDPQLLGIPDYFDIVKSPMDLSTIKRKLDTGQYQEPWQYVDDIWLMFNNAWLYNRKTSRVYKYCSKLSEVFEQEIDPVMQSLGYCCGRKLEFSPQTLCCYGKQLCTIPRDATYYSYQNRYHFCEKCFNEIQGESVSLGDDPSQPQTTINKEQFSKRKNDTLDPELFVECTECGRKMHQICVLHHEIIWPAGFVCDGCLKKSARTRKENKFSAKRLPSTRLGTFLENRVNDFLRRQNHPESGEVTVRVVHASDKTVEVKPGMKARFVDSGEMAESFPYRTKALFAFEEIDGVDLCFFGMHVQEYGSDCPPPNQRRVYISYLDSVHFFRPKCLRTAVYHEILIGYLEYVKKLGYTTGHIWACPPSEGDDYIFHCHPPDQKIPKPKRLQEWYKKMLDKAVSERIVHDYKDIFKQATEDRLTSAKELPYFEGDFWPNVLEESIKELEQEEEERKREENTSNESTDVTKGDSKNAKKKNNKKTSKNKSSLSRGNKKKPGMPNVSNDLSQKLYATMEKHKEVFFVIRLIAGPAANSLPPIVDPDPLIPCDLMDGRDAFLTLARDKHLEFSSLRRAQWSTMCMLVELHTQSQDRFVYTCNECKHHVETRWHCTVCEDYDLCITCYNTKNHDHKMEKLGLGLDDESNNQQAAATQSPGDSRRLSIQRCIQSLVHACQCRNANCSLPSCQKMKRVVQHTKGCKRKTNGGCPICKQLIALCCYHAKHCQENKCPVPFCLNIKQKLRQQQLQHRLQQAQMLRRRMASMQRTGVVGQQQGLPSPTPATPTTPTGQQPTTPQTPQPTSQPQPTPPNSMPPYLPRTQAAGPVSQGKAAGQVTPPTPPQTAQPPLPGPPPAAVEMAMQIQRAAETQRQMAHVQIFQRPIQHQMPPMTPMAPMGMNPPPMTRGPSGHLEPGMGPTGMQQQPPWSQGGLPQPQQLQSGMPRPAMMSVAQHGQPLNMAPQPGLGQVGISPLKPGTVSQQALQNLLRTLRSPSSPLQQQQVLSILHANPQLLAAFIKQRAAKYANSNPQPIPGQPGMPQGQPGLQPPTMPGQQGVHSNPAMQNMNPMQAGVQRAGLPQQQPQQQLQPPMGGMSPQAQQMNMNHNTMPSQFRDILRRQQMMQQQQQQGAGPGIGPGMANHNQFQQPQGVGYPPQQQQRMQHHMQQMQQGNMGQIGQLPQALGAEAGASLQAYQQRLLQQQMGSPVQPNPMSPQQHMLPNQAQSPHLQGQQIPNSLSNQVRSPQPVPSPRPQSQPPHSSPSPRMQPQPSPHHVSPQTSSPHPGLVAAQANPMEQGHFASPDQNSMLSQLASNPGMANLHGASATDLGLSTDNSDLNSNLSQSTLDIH

C[C@@H]1CC(=O)Nc2cccc(-c3ccc4c(c3)c(-c3cnn(C(=O)CCCCCCCCCNc5cccc6c5C(=O)N(C5CCC(=O)NC5=O)C6=O)c3)nn4C)c2N1 (stereo partly drawn) [Compound 31, 2-(2,6-dioxopiperidin-3-yl)-4-((10-(4-(1-methyl-5-((R)-4-methyl-2-oxo-2,3,4,5-tetrahydro-1H-benzo[b][1,4]diazepin-6-yl)-1H-indazol-3-yl)-1H-pyrazol-1-yl)-10-oxodecyl)amino)isoindoline-1,3-dione]
selectivity of P300 and CBP degradation against BRD2/3/4 (BRD2/3/4): selective | P300 degradation (immunoblot) (EP300): noticeable degradation | CBP degradation (immunoblot) (CBP): noticeable degradation
